Experimental data reported in patent publication US5439905A, “Thienodiazepine compounds and their use” (Yoshitomi Pharmaceutical Industries, Ltd., priority 1993, dated 1995).
Where two headings read alike, the source gives them in different places.

Experiments:
[1] = target: T1, CCK receptor (brain); test: CCK receptor-binding, brain (inhibition of 125I-CCK-8 binding)
T1 construct: brain; from tissue

[2] = target: T2, CCK receptor (pancreas) (Canis lupus familiaris, UniProt Q5D0K2); test: CCK receptor-binding, pancreas (inhibition of 125I-CCK-8 binding); parameters: species or system male mongrel adult dog
T2 construct: the suspension was used as a receptor source; from tissue; host or cells: dog pancreas membranes
T2 sequence (Q5D0K2 1-428): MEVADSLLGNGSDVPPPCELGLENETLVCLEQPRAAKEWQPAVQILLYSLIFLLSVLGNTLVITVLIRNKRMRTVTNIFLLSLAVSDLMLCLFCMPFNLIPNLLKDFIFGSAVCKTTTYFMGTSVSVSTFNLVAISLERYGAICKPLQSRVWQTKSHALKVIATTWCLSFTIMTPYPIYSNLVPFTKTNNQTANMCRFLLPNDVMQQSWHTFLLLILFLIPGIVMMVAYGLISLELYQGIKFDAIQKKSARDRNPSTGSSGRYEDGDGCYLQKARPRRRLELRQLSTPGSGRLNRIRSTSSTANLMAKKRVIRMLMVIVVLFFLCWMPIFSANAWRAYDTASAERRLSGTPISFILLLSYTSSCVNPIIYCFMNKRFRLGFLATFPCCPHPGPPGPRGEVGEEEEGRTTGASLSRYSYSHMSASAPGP
Protocol: The entire pancreas of a male mongrel adult dog was extracted and the fat tissues thereof were removed. The residual portion was homogenized in 50 mM Tris hydrochloride (pH 7.5) (Blinkman.cndot.Polytron PT20). After the filtration with nylon cloth (120 mesh) and subsequent centrifugation (50,000×g, 12 minutes), the obtained sediment was homogenized in a Tris buffer solution in the same manner as mentioned above and the homogenate was centrifuged. The obtained sediment was suspended in a buffer solution for binding assay (5 mM magnesium chloride, 5 mM dithiothreitol, 2 mg/ml bovine serum albumin, 0.1 mg/ml bacitracin, and 50 mM Tris hydrochloride, pH 7.2) containing 0.14 mg/ml trypsin-inhibitor (soy bean), and the suspension was used as a receptor source.

[3] = dog pancreas membranes, 125I-CCK-8, 20° C., 30 minutes, pH 7.2, read-out: CCK binding, IC50, pancreas

T1 sequence (P32239 whole entry): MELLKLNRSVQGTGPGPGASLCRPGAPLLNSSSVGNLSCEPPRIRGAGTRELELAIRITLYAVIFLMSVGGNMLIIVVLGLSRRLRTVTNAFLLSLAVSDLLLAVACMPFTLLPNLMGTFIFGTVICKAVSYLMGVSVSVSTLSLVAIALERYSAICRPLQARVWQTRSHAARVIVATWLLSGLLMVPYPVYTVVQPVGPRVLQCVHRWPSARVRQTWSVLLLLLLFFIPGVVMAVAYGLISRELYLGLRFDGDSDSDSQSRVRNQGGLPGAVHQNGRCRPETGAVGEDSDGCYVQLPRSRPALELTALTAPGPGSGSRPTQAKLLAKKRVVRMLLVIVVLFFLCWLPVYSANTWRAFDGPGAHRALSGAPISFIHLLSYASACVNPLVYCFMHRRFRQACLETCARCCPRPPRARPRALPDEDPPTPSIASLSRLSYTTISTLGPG

Molecule | IC50 [1] [nM] | IC50 [2] [nM] | IC50 [2, 3] [nM]
CCc1cc2c(s1)N(C)C(=O)C(NC(=O)Nc1cccc(C)c1)N=C2c1ccccc1Cl (stereo not drawn) [Compound A, 4-(2-chlorophenyl)-2-ethyl-8-methyl-6-(3-(3-methylphenyl)ureido)-8H-6,7-dihydro-thieno[3,2-f]-[1,4]diazepin-7-one] | 31 | 11 | –
CCc1cc2c(s1)-n1c(C)nnc1C(NC(=O)Nc1cccc(C)c1)N=C2c1ccccc1Cl (stereo not drawn) [Compound B, 4-(2-chlorophenyl)-2-ethyl-9-methyl-6-(3-(3-methylphenyl)ureido)-6H-thieno[3,2-f][1,2,4]-triazolo[4,3-a][1,4]diazepine] | 10 | 1.2 | –
CCK-4 [reference compound] | – | – | 800
CCK-8: CCK-8 which consists of 8 amino acids at the C terminus (of cholecystokinin); control compound [reference compound] | – | – | 0.4
